Tests used:
Assay type in all cases: in vivo, human
[1] = system: ADHD subject; experiment: BNA pattern similarity from EEG data of ADHD subjects before and after MPH treatment
Source text: The BNA patterns shown in FIGS. 6A-D are associated subject-specific BNA patterns constructed from EEG data recorded from a particular ADHD subject. The black dots in FIGS. 6A-D show the locations of the EEG electrodes. The color codes in these BNA patterns are the same as defined above. The subject-specific BNA patterns shown in FIGS. 6A-B describe the association of the ADHD subject to a group of untreated ADHD subjects, and the BNA patterns shown in FIGS. 6C-D describe the association of the ADHD subject to a group of ADHD subjects all treated with methylphenidate (MPH). The subject-specific BNA patterns shown in FIGS. 6A and 6C are based on EEG data recorded from the ADHD subject before any treatment, and subject-specific BNA patterns shown in FIGS. 6B and 6D are based on EEG data recorded from the ADHD subject following a treatment with MPH.
The baseline annotated BNA pattern constructed from the group of untreated ADHD subjects, and the baseline annotated BNA pattern constructed from the same group of subjects, but following treatment with MPH are shown in FIGS. 6E and 6F, respectively.
A BNA pattern similarity was calculated for each of the subject-specific BNA patterns shown in FIGS. 6A-D. The calculated similarity corresponding to the BNA pattern of FIG. 6A is 0.73, the calculated similarity corresponding to the BNA pattern of FIG. 6B is 0.19, the calculated similarity corresponding to the BNA pattern of FIG. 6C is 0.56, and the calculated similarity corresponding to the BNA pattern of FIG. 6D is 0.6.
The BNA patterns shown in FIGS. 7A-D were constructed from EEG data recorded from a different ADHD subject, which was also treated with MPH according to the same protocol as described above with respect to the responder subject of FIGS. 6A-D. The black dots in FIGS. 7A-D show the locations of the EEG electrodes, and the color codes in these BNA patterns is the same as defined above. Thus, the subject-specific BNA patterns shown in FIGS. 7A-B describe the association of the ADHD subject to a group of untreated ADHD subjects, and the BNA patterns shown in FIGS. 7C-D describe the association of the ADHD subject to a group of ADHD subjects all treated with methylphenidate (MPH). The subject-specific BNA patterns shown in FIGS. 7A and 7C are based on EEG data recorded from the ADHD subject before any treatment, and subject-specific BNA patterns shown in FIGS. 7B and 7D are based on EEG data recorded from the ADHD subject following a treatment with MPH.

[2] = system: groups of subjects; experiment: Group BNA patterns from EEG data recorded during a working memory test (cue/probe face matching); settings: memorization and retrieval, versus placebo
Source text: FIGS. 10A-H show group BNA patterns constructed from EEG data recorded from two groups of subjects during a working memory test. The black dots in FIGS. 10A-H show the locations of the EEG electrodes, and the color codes in these BNA patterns is the same as defined above. During the test, each subject of the group was asked to memorize an image of a human face (referred to as the “cue”). Two seconds later, the subject was again presented with an image of a human face (referred to as the “probe”) and was asked to determine whether the probe matches the cue.
The BNA patterns of the first group are shown in FIGS. 10A-D. FIGS. 10A and 10B are group BNA patterns constructed following treatment with a placebo (referred to below as placebo A), and FIGS. 10C and 10D are group BNA patterns constructed following treatment with a Scopolamine. The BNA patterns of the second group are shown in FIGS. 10E-H, where FIGS. 10E and 10F are group BNA patterns constructed following treatment with a placebo (referred to below as placebo B), and FIGS. 10G and 10H are BNA patterns constructed following treatment with a Ketamine.
The BNA pattern of FIGS. 10A, 10C, 10E and 10G were constructed from the data acquired during the time at which the cue was presented and are recognized by the present inventor as containing information pertaining to the memorization process in the brain (also known in the literature as “encoding”). The BNA patterns of FIGS. 10B, 10D, 10F and 10H were constructed from the data acquired during the time at which the probe was presented, and are recognized by the present inventor as containing information pertaining to the retrieval process in the brain. It is noted that the BNA patterns of FIGS. 10A-H describe differentiating activity networks. Thus, for example, the BNA pattern of FIG. 10A describes the brain activity during cue that most differentiated between placebo A and Scopolamine, and the BNA pattern of […] describes the brain activity during cue that most differentiated between placebo B and Ketamine.

[3] = system: healthy volunteer subjects; experiment: BNA pattern similarity from EEG data of healthy volunteers during an attention-related oddball task after scopolamine; clinical behavioral endpoint; settings: for BNA pattern similarity to baseline BNA pattern of healthy subjects following placebo: following scopolamine
Source text: FIGS. 8A-D show associated subject-specific BNA patterns constructed from EEG data recorded from two healthy volunteer subjects. The black dots in FIGS. 8A-D show the locations of the EEG electrodes, and the color codes in these BNA patterns are the same as defined above. The subject-specific BNA patterns shown in FIGS. 8A-D describe the association of the subjects to a group of healthy subjects following treatment with a placebo drug and while performing an attention task related oddball task.
FIGS. 8A and 8C are subject-specific BNA patterns constructed from EEG data collected from a first subject (FIG. 8A) and a second subject (FIG. 8C) following treatment with a placebo, and FIGS. 8B and 8D are subject-specific BNA patterns constructed from EEG data collected from the first subject (FIG. 8B) and the second subject (FIG. 8D) following treatment with a scopolamine drug. Scopolamine is an anticholinergic drug with inhibitory effect on M2-cholinergic receptors of excited type. It has an inhibitory effect on the cerebral cortex, typically inducing slight-anesthetic effect.
A BNA pattern similarity was calculated for each of the subject-specific BNA patterns shown in FIGS. 8A-D. The calculated similarities are 0.937, 0.079, 1.0 and 0.94, respectively. It is recognized by the present inventors that these similarity values indicate that the responsivity to scopolamine is high for the first subject (FIGS. 8A and 8B) and low for the second subject (FIGS. 8C and 8D).

[4] = system: healthy volunteers; experiment: Scopolamine induced cognitive impairment model: ΔBNA scores in Auditory Oddball Task against SEM of the normative database; settings: scopolamine 0.4 mg, Novel stimulus, connectivity score; only 2 patients receiving placebo
Source text: The task chosen for this study was the Auditory Oddball Task, but other tasks are not excluded from the scope of the present invention. FIG. 21 is a schematic representation of an Auditory Oddball Task used in this study. The task included 600 repetitive 1000 ms auditory stimulations of which 80% were 2000 Hz stimuli (Frequent—blue circles), 10% were 1000 Hz stimuli requiring a motor response (Target—red circles) and 10% were rare non-targets composed of various sounds (Novel—yellow star). The stimuli were separated by 1500 ms intervals. The sound was delivered through a headset at a sound pressure level of 70 dB.
A pharmacological model study included 13 healthy volunteers of both genders, Aged 18-45. The volunteers were subjected to 3 Consecutive BNA sessions were, 1 week apart. A first session was used as a baseline, one of the two other sessions included administration of scopolamine (0.4 mg), and the other of the two other sessions included administration of placebo. The second and third sessions were at random order, double blind. ΔBNA Score values (Baseline—Placebo and Baseline—Drug) were evaluated against SEM values.
Shown are Plots of the ΔBNA (Baseline—treatment) connectivity score values for the Novel response. Each symbol is a single subject, tested once following Drug and once following Placebo. […]

Row | Structure (SMILES) | BNA pattern similarity to the group of untreated ADHD subjects ([1]; different ADHD subject (FIG. 7B), following treatment with MPH, 0 before treatment) | BNA pattern similarity to the group of ADHD subjects treated with MPH ([1]; different ADHD subject (FIG. 7D), following treatment with MPH, 0.06 before treatment) | responsiveness of the subject to the treatment as indicated by similarity values ([1]; different ADHD subject (FIGS. 7A-D)) | BNA pattern similarity to the baseline BNA pattern for untreated ADHD group ([1]; first ADHD subject (FIG. 6B), following single dose treatment with MPH, 0.73 before treatment) | BNA pattern similarity to the baseline BNA pattern for the treated ADHD group ([1]; first ADHD subject (FIG. 6D), following single dose treatment with MPH, 0.56 before treatment) | responsiveness of the subject to the treatment as indicated by similarity values ([1]; first ADHD subject (FIGS. 6A-D)) | effect on central and frontal activation in group BNA pattern [2] | effect on fronto-parietal part / connectivity of group BNA pattern [2] | effect on right lateralization in group BNA pattern [2] | BNA pattern similarity to baseline BNA pattern of healthy subjects following placebo ([3]; first subject (FIG. 8B), 0.937 following placebo) | responsivity to scopolamine as indicated by similarity values ([3]; first subject (FIGS. 8A and 8B)) | decrease in behavioral endpoint (clinical observations) ([3]; first subject, following treatment with scopolamine) [%] | BNA pattern similarity to baseline BNA pattern of healthy subjects following placebo ([3]; second subject (FIG. 8D), 1.0 following placebo) | responsivity to scopolamine as indicated by similarity values ([3]; second subject (FIGS. 8C and 8D)) | change in behavioral endpoint (clinical observations) ([3]; second subject, following treatment with scopolamine) | patients with post-treatment BNA scores more than 2 SEM lower than the baseline score [4]
1 | COC(=O)C(c1ccccc1)C1CCCCN1 (stereo not drawn) [MPH, methylphenidate] | 0 | 0 | not responsive to the treatment | 0.19 | 0.6 | responsive to the treatment |  |  |  |  |  |  |  |  |  | 
2 | CNC1(c2ccccc2Cl)CCCCC1=O (stereo not drawn) [ketamine] |  |  |  |  |  |  | increased central and frontal activation | No significant change in the fronto-parietal part of the BNA pattern | decreased right lateralization |  |  |  |  |  |  | 
3 | CN1[C@@H]2C[C@@H](OC(=O)[C@H](CO)c3ccccc3)C[C@H]1[C@@H]1O[C@@H]12 [scopolamine] |  |  |  |  |  |  | extensive compensatory central and frontal activation | low connectivity between frontal and parietal regions |  | 0.079 | high | 70 | 0.94 | low | no change in behavioral endpoint | Eight out of 13

Reference: patent US10668283B2, “Brain stimulation tool configuration” (Elminda Ltd., priority 2014, dated 2020)
